A short description of series [1]: pKa of nanoparticle compositions. The format is physicochemical.
The nature of series [2]: Lipid clearance: % dose remaining in liver of CD-1 mice. The settings on record: intravenous, 0.5 mg/kg, CD-1 mouse, Table 8a. The format is in vivo. The text has this: In contrast, hEPO expression in rats induced by administration of a nanoparticle composition including a compound according to one of formulae (I), (Ia1)-(Ia6), (Ib), (II), (IIa), (III), and (IIIa) was substantially […] than that measured for MC3. […] Tables 7c and 7d show additional protein expressions and clearance data from compositions with various compounds disclosed herein as compared to with MC3. Tables 7e, 7f and 7g show hEPO expression data in CD-1 mice at a dose of 0.5 mpk.

The nature of series [3]: Lipid purity change after storage in EtOH for 96 h at 25 or 37 °C. The format is physicochemical. The procedure: Nanoparticle compositions including a therapeutic and/or prophylactic agent can be optimized according to the selection of a compound according to one of formulae (I), (Ia1)-(Ia10), (Ib), (Ic), (Id), (Id1)-(Id10), (Ie), (Ie1)-(Ie6), (II), (IIa), (III), and (IIIa), the selection of additional lipids, the amount of each lipid in the lipid component, and the wt:wt ratio of the lipid component to the therapeutic and/or prophylactic agent, as described herein. Initial studies were performed to compare the delivery efficiency of nanoparticle compositions including various compounds according to one of formulae (I), (Ia1)-(Ia10), (Ib), (Ic), (Id), (Id1)-(Id10), (Ie), (Ie1)-(Ie6), (II), (IIa), (III), and (IIIa). The cationic lipid MC3 is a current standard in the art. Also determined was the stability of nanoparticles of the disclosure, i.e., the purity after storage in EtOH for 96h at 25° C. or 37° C. (Table Id).

Series [4] can be described thus: Particle size and polydispersity index of nanoparticle compositions (Zetasizer Nano ZS). The settings on record: Table 1c; nanoparticle compositions. The format is physicochemical. The procedure: A Zetasizer Nano ZS (Malvem Instruments Ltd, Malvem, Worcestershire, UK) can be used to determine the particle size, the polydispersity index (PDI) and the zeta potential of the nanoparticle compositions in 1×PBS in determining particle size and 15 mM PBS in determining zeta potential.

Series [5] can be described thus: Encapsulation efficiency of RNA (QUANT-IT RIBOGREEN RNA assay). The settings on record: Table 1c; nanoparticle compositions. The format is physicochemical. The procedure:
For nanoparticle compositions including an RNA, a QUANT-IT™ RIBOGREEN® RNA assay (Invitrogen Corporation Carlsbad, CA) can be used to evaluate the encapsulation of an RNA by the nanoparticle composition. The samples are diluted to a concentration of approximately 5 μg/mL in a TE buffer solution (10 mM Tris-HCl, 1 mM EDTA, pH 7.5). 50 μL of the diluted samples are transferred to a polystyrene 96 well plate and either 50 μL of TE buffer or 50 μL of a 2% Triton X-100 solution is added to the wells. The plate is incubated at a temperature of 37° C. for 15 minutes. The RIBOGREEN® reagent is diluted 1:100 in TE buffer, and 100 μL of this solution is added to each well. The fluorescence intensity can be measured using a fluorescence plate reader (Wallac Victor 1420 Multilablel Counter; Perkin Elmer, Waltham, MA) at an excitation wavelength of, for example, about 480 nm and an emission wavelength of, for example, about 520 nm. The fluorescence values of the reagent blank are subtracted from that of each of the samples and the percentage of free RNA is determined by dividing the fluorescence intensity of the intact sample (without addition of Triton X-100) by the fluorescence value of the disrupted sample (caused by the addition of Triton X-100).

Data on 18 molecules can be found in patent US12077501B2, “Compounds and compositions for intracellular delivery of agents” (ModernaTX, Inc., priority 2017, dated 2024).

In turn, `CCCCCCCCCN(CCCCCCCC(=O)OC)CCC1CCN(C(=O)CN(CCCCCCCCC)CCN(CCCCCCCCC)CCCCCCCCC)CC1` [Compound 57, Methyl 8-((2-(1-(N-(2-(dinonylamino)ethyl)-N-nonylglycyl)piperidin-4-yl)ethyl)(nonyl)amino)octanoate] showed a pKa in series [1] (Table 1b) of 6.73.

`CCCCCCCCCN(CCCCCCC(=O)OCC)CCC1CCN(C(=O)CN(CCCCCCCCC)CCN(CCCCCCCCC)CCCCCCCCC)CC1` [Compound 58, Ethyl 7-((2-(1-(N-(2-(dinonylamino)ethyl)-N-nonylglycyl)piperidin-4-yl)ethyl)(nonyl)amino)heptanoate]: the pKa in series [1] (Table 1b) is given as 6.7.

`CCCCCCCCCN(CCCCCC(=O)OCCC)CCC1CCN(C(=O)CN(CCCCCCCCC)CCN(CCCCCCCCC)CCCCCCCCC)CC1` [Compound 59, Propyl 6-((2-(1-(N-(2-(dinonylamino)ethyl)-N-nonylglycyl)piperidin-4-yl)ethyl)(nonyl)amino)hexanoate]: the pKa in series [1] (Table 1b) turned out to be 6.68.

In series [1] (Table 1b), `CCCCCCCCCN(CCCC(=O)OCCCCC)CCC(=O)N1CCN(C(=O)CCN(CCCCCCCCC)CCN(CCCCCCCCC)CCCCCCCCC)CC1` [Compound 62, Pentyl 4-((3-(4-(3-((2-(dinonylamino)ethyl)(nonyl)amino)propanoyl)piperazin-1-yl)-3-oxopropyl)(nonyl)amino)butanoate] returned a pKa of 7.56. In addition, in series [2], the “% Dose Remaining 6 hr” value turned out to be 16.99% and the “% Dose Remaining 24 hr” value was determined as 14.36%.

On to `CCCCCCCCCN(CCCCCCCCC)CCC1CCN(C(=O)CN(CCCCCCCCC)CCN(CCCCCCCCC)CCCCCCCCC)C1` (stereo not drawn) [Compound 69, 2-((2-(Dinonylamino)ethyl)(nonyl)amino)-1-(3-(2-(dinonylamino)ethyl)pyrrolidin-1-yl)ethan-1-one], for which the pKa in series [1] (Table 1b) came out at 7.01. Besides, in series [2], the “% Dose Remaining 6 hr” value came to 59.21% and the “% Dose Remaining 24 hr” value amounted to 52.03%.

For the molecule `CCCCCCCCCN(CCCCCCCCC)CCN(CCCCCCCCC)CC(=O)N1CCC(CN(CCCCCCCCC)CCCCCCCCC)C1` (stereo not drawn) [Compound 70, 2-((2-(Dinonylamino)ethyl)(nonyl)amino)-1-(3-((dinonylamino)methyl)pyrrolidin-1-yl)ethan-1-one], the pKa in series [1] (Table 1b) is listed as 6.75. In series [2], the “% Dose Remaining 6 hr” value was 56.30% and the “% Dose Remaining 24 hr” value came to 57.20%.

`CCCCCCCCCN(CCCCCCCCC)CCN(CCCCCCCCC)CC(=O)N1CCN(C(=O)CN(CCCC(=O)OCCCCC)CCCC(=O)OCCCCC)CC1` [Compound 72, Dipentyl 4,4′-((2-(4-(N-(2-(dinonylamino)ethyl)-N-nonylglycyl)piperazin-1-yl)-2-oxoethyl)azanediyl)dibutyrate] came in with a pKa in series [1] (Table 1b) of 7.19.

In series [1] (Table 1b), `CCCCCCCCCN(CCCCCCCCC)CCC1CCCN(C(=O)CN(CCCCCCCCC)CCN(CCCCCCCCC)CCCCCCCCC)C1` (stereo not drawn) [Compound 73, 2-((2-(Dinonylamino)ethyl)(nonyl)amino)-1-(3-(2-(dinonylamino)ethyl)piperidin-1-yl)ethan-1-one] returned a pKa of 6.65. In series [2], the “% Dose Remaining 6 hr” value is recorded as 68.53% and the “% Dose Remaining 24 hr” value is given as 64.75%.

With `CCCCCCCCCN(CCCC(=O)OCCCCC)CCC1CCCN(C(=O)CN(CCCCCCCCC)CCN(CCCCCCCCC)CCCCCCCCC)C1` (stereo not drawn) [Compound 80, Pentyl 4-((2-(1-(N-(2-(dinonylamino)ethyl)-N-nonylglycyl)piperidin-3-yl)ethyl)(nonyl)amino)butanoate], the pKa in series [1] (Table 1b) was found to be 6.78. Also, in series [2], the “% Dose Remaining 6 hr” value worked out at 23.78% and the “% Dose Remaining 24 hr” value is recorded as 25.25%.

Take `CCCCCCCCCN(CCCC(=O)OCCCCC)CCC1CCN(C(=O)CN(CCCCCCCCC)CCN(CCCCCCCCC)CCCCCCCCC)C1` (stereo not drawn) [Compound 81, Pentyl 4-((2-(1-(N-(2-(dinonylamino)ethyl)-N-nonylglycyl)pyrrolidin-3-yl)ethyl)(nonyl)amino)butanoate]: the pKa in series [1] (Table 1b) was 7.22. In series [2], the “% Dose Remaining 6 hr” value came to 15.28% and the “% Dose Remaining 24 hr” value was 19.27%.

Take `CCCCCCCCCN(CCCCCCCCC)CCN(CCCCCCCCC)CC(=O)N1CCC(CN(CCCCCCCCC)CCCC(=O)OCCCCC)C1` (stereo not drawn) [Compound 82, Pentyl 4-(((1-(N-(2-(dinonylamino)ethyl)-N-nonylglycyl)pyrrolidin-3-yl)methyl)(nonyl)amino)butanoate]: the pKa in series [1] (Table 1b) is recorded as 7.05. For the same molecule, in series [2], the “% Dose Remaining 6 hr” value is given as 37.85% and the “% Dose Remaining 24 hr” value was 38.66%.

Molecule `CCCCCCCCCN(CCCC(=O)OCCCCC)CCC1CCN(C(=O)CN(CCCCCCCCC)CCN(CCCCCCCCC)CCCCCCCCC)CC1` [Compound 83, Pentyl 4-((2-(1-(N-(2-(dinonylamino)ethyl)-N-nonylglycyl)piperidin-4-yl)ethyl)(nonyl)amino)butanoate] displayed a pKa in series [1] (Table 1b) of 6.72. Moreover, in series [2], the “% Dose Remaining 6 hr” value is 31.32% and the “% Dose Remaining 24 hr” value is 30.54%.

In series [1] (Table 1b), `CCCCCCCCCN(CCCC(=O)OCCCCC)CCCC1CCN(C(=O)CCN(CCCCCCCCC)CCN(CCCCCCCCC)CCCCCCCCC)CC1` [Compound 84, Pentyl 4-((3-(1-(3-((2-(dinonylamino)ethyl)(nonyl)amino)propanoyl)piperidin-4-yl)propyl)(nonyl)amino)butanoate] gave a pKa of 7.01. Further, in series [2], the “% Dose Remaining 6 hr” value was 21.23% and the “% Dose Remaining 24 hr” value was found to be 20.86%.

For `CCCCCCCCCN(CCCCCCCCC)CCCC1CCN(C(=O)CCN(CCCCCCCCC)CCN(CCCCCCCCC)CCCCCCCCC)CC1` [Compound 85, 3-((2-(Dinonylamino)ethyl)(nonyl)amino)-1-(4-(3-(dinonylamino)propyl)piperidin-1-yl)propan-1-one], the pKa in series [1] (Table 1b) was 6.74. Also, in series [2], the “% Dose Remaining 6 hr” value was determined as 52.40% and the “% Dose Remaining 24 hr” value is given as 53.65%.

Regarding `CCCCCCCCCN(CCCOC(=O)CCCCC)CCC(=O)N1CCN(C(=O)CCN(CCCCCCCCC)CCN(CCCCCCCCC)CCCCCCCCC)CC1` [Compound 86, 3-((3-(4-(3-((2-(Dinonylamino)ethyl)(nonyl)amino)propanoyl)piperazin-1-yl)-3-oxopropyl)(nonyl)amino)propyl hexanoate], in series [1] (Table 1b), the pKa came out at 7.58. In series [3], the “Lipid % change purity in EtOH, 25° C., 96 h” value is reported as 8.1% and the “Lipid % change purity in EtOH, 37° C., 96 h” value is given as 20.8%. Besides, in series [2], the “% Dose Remaining 6 hr” value was determined as 0.16% and the “% Dose Remaining 24 hr” value came out at 0.12%.

`CCCCCCCCCN(CCCOC(=O)CCCCC)CCCC1CCN(C(=O)CCN(CCCCCCCCC)CCN(CCCCCCCCC)CCCCCCCCC)CC1` [Compound 87, 3-((3-(1-(3-((2-(Dinonylamino)ethyl)(nonyl)amino)propanoyl)piperidin-4-yl)propyl)(nonyl)amino)propyl Hexanoate] showed a pKa in series [1] (Table 1b) of 6.79. Besides, in series [2], the “% Dose Remaining 6 hr” value is 0.07% and the “% Dose Remaining 24 hr” value is listed as 0.05%.

`CCCCCCCCCN(CCCCCCCCC)CCN(CCCCCCCCC)CCOC(=O)C1CCN(C(=O)CN(CCCCCCCCC)CCCCCCCCC)CC1` [Compound 129, 2-((2-(Dinonylamino)ethyl)(nonyl)amino)ethyl 1-(dinonylglycyl)piperidine-4-carboxylate]: in series [4], the PDI was 0.24 and the “Size (nm)” value was found to be 70.3 nm. Further, the “EE (%)” value in series [5] stood at 96.9%. In series [1] (Table 1c), this molecule had a pKa of 5.17. In addition, in series [3], the “Lipid % change purity in EtOH, 25° C., 96 h” value was determined as 8.46% and the “Lipid % change purity in EtOH, 37° C., 96 h” value was 15.47%. Also, the “% Dose Remaining 24 hr” value in series [2] amounted to 9.10%.

`CCCCCCCCCN(CCCOC(=O)CC(C)CCC)CCC1CCN(C(=O)CN(CCCCCCCCC)CCN(CCCCCCCCC)CCCCCCCCC)CC1` (stereo not drawn) [Compound 133, 3-((2-(1-(N-(2-(Dinonylamino)ethyl)-N-nonylglycyl)piperidin-4-yl)ethyl)(nonyl)amino)propyl 3-methylhexanoate] had a pKa in series [1] (Table 1c) of 6.58. Also, the “% Dose Remaining 24 hr” value in series [2] came out at 13.02%.
